Reference: ChEMBL document CHEMBL3526052 (Drug Metab Dispos, 2013)

Tests used:
Format in all cases: ADME, organism-based
[1] = Tmax in CD-1 mouse brain at 60 mg/kg, iv administered as bolus dose in absence of ENT1 inhibitor NBMPR-P; design: dose 60 mg/kg, route intravenous
[2] = Tmax in CD-1 mouse brain at 60 mg/kg, iv administered as bolus dose in presence of ENT1 inhibitor NBMPR-P; design: dose 60 mg/kg, route intravenous
[3] = Cmax in CD-1 mouse brain at 60 mg/kg, iv administered as bolus dose in absence of ENT1 inhibitor NBMPR-P; design: dose 60 mg/kg, route intravenous
[4] = Cmax in CD-1 mouse brain at 60 mg/kg, iv administered as bolus dose in presence of ENT1 inhibitor NBMPR-P; design: dose 60 mg/kg, route intravenous
Brain [5] = assay: AUC (0 to 4 hrs) in CD-1 mouse brain at 60 mg/kg, iv administered as bolus dose in absence of ENT1 inhibitor NBMPR-P; design: time < 4 hr, dose 60 mg/kg, route intravenous; conditions: in vivo
Brain [6] = assay: AUC (0 to 4 hrs) in CD-1 mouse brain at 60 mg/kg, iv administered as bolus dose in presence of ENT1 inhibitor NBMPR-P; design: time < 4 hr, dose 60 mg/kg, route intravenous; conditions: in vivo
[7] = Apparent volume of distribution at steady state in CD-1 mouse at 60 mg/kg, iv administered as bolus dose in absence of ENT1 inhibitor NBMPR-P; design: dose 60 mg/kg, route intravenous; conditions: in vivo, read-out: Vdss(app)
[8] = Apparent volume of distribution at steady state in CD-1 mouse at 60 mg/kg, iv administered as bolus dose in presence of ENT1 inhibitor NBMPR-P; design: dose 60 mg/kg, route intravenous; conditions: in vivo, read-out: Vdss(app)
[9] = Elimination half life in CD-1 mouse at 60 mg/kg, iv administered as bolus dose in absence of ENT1 inhibitor NBMPR-P; design: dose 60 mg/kg, route intravenous; conditions: in vivo, read-out: beta t1/2 (converted)
[10] = Elimination half life in CD-1 mouse at 60 mg/kg, iv administered as bolus dose in presence of ENT1 inhibitor NBMPR-P; design: dose 60 mg/kg, route intravenous; conditions: in vivo, read-out: beta t1/2 (converted)
[11] = AUC (0 to infinity) in CD-1 mouse at 60 mg/kg, iv administered as bolus dose in absence of ENT1 inhibitor NBMPR-P; design: time infinity, dose 60 mg/kg, route intravenous; conditions: plasma
[12] = AUC (0 to infinity) in CD-1 mouse at 60 mg/kg, iv administered as bolus dose in presence of ENT1 inhibitor NBMPR-P; design: time infinity, dose 60 mg/kg, route intravenous; conditions: plasma

Nc1nc(F)nc2c1ncn2[C@@H]1O[C@H](CO)[C@@H](O)[C@@H]1O [FLUDARABINE]
Tmax [1]: 0.88 h | Tmax [2]: 1.63 h | Cmax [3]: 6050 ng/g | Cmax [4]: 801 ng/g | AUC (Brain [5]): 11300 ng·h/g | AUC (Brain [6]): 2490 ng·h/g | Vd [7]: 1.6 L/kg | Vd [8]: 2.6 L/kg | half-life [9]: 1.7 h | half-life [10]: 2.2 h | AUC(0-inf) [11]: 39600 ng·h/mL | AUC(0-inf) [12]: 65700 ng·h/mL
